Reference: US20100056565A1, “Heterocyclic Derivatives as M3 Muscarinic Receptors” (priority 2007, published 2010)
Structures can show the parent of a compound that is named as a salt.

Target: T1, Recombinant human M3 receptor (Homo sapiens, UniProt P20309)
T1 construct: expressed in transfected cells; host or cells: CHO-K1 cells (membranes)
Assay: biochemical
Assay type: binding
Conditions: M3 Ki (SPA format, SPA format)
Experimental: Recombinant human M3 receptor was expressed in CHO-K1 cells. Cell membranes were prepared and binding of [3H]-N-methyl scopolamine ([3H]-NMS) and compounds was assessed by a scintillation proximity assay (SPA). The incubation time was 16 hours at room temperature in the presence of 1% (v/v) DMSO. The assay was performed in white 96 well clear-bottomed NBS plates (Corning). Prior to the assay, the CHO cell membranes containing M3 receptor were coated onto SPA WGA (Wheat germ agglutinin) beads (GE Healthcare). Non specific binding was determined in the presence of 1 μM Atropine.
Radioactivity was measured on a Microbeta scintillation counter (PerkinElmer) using a 3H protocol with a 2 minutes per well read time. […] Concentration dependent inhibition of [3H]-NMS binding by compounds was expressed as pIC50.

T1 sequence (P20309 whole entry): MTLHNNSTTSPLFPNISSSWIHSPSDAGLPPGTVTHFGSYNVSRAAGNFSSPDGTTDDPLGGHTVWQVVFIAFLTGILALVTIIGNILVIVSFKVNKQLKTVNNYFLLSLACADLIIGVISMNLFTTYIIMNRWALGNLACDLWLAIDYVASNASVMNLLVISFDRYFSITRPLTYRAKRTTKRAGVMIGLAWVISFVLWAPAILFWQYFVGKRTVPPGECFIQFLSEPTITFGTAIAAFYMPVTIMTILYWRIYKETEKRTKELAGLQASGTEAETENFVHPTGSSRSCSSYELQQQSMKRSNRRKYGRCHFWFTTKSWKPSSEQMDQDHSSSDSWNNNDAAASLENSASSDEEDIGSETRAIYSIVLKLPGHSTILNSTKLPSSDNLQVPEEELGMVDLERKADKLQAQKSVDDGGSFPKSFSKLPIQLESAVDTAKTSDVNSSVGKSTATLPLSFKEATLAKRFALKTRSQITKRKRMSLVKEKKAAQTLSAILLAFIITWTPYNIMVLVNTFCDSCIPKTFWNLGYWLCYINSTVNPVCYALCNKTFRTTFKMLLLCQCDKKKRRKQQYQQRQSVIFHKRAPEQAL

For `O=C(O[C@H]1C[N+]2(Cc3cnc([C@](O)(c4ccccc4)C4CCCCC4)o3)CCC1CC2)c1ccccc1` [Example 14, (R)-3-benzoyloxy-1-[2-((R)-cyclohexyl-hydroxy-phenyl-methyl)-oxazol-5-ylmethyl]-1-azonia-bicyclo[2.2.2]octane; formate], the Ki was 5 to 20 nM.

Same assay, conditions: SPA format; read-out: M3 Ki (SPA format)

`OC(c1ccccc1)(c1noc(C[N+]23CCC(CC2)[C@@H](OCc2ccccc2)C3)n1)C1CCCCC1` (single isomer, unassigned) [Example 30, formate] and `OC(c1ccccc1)(c1noc(C[N+]23CCC(CC2)[C@@H](OCc2ccc(F)cc2)C3)n1)C1CCCCC1` (single isomer, unassigned) [Example 130] cannot be ordered by Ki: < 5 nM for the first, < 5 nM for the second.

`OC(c1ccccc1)(c1cc(C[N+]23CCC(CC2)[C@@H](OCc2ccccc2)C3)on1)C1CCCCC1` (single isomer, unassigned) [Example 31, formate] and `OC(c1ccccc1)(c1cc(C[N+]23CCC(CC2)[C@@H](OCc2ccc(F)cc2)C3)on1)C1CCCCC1` (single isomer, unassigned) [Example 54] cannot be ordered by Ki: < 5 nM for the first, < 5 nM for the second.

`OC(c1ccccc1)(c1ncc(C[N+]23CCC(CC2)[C@@H](OCc2ccccc2)C3)o1)C1CCCCCCC1` (single isomer, unassigned) [Example 48, formate] and `O[C@](c1ccccc1)(c1ncc(C[N+]23CCC(CC2)[C@@H](OCc2ccccc2)C3)o1)C1CCCCC1` [Example 12, (R)-3-(Benzyloxy)-1-[2-(R)-cyclohexyl-hydroxy-phenyl-methyl)-oxazol-5-ylmethyl]-1-azonia-bicyclo[2.2.2]octane; bromide] cannot be ordered by Ki: < 5 nM for the first, < 5 nM for the second.

`OC(c1ccccc1)(c1ncc(C[N+]23CCC(CC2)[C@@H](OCc2ccccc2)C3)o1)C1CCC1` (single isomer, unassigned) [Example 50, formate] and `O[C@](c1ccccc1)(c1ncc(C[N+]23CCC(CC2)C(OCc2ccccc2)C3)o1)C1CCCCC1` (stereo partly drawn) [Example 16, 3-benzyloxy-1-[2-((R)-cyclohexyl-hydroxy-phenyl-methyl)-oxazol-5-ylmethyl]-1-azonia-bicyclo[2.2.2]octane; formate] cannot be ordered by Ki: < 5 nM for the first, < 5 nM for the second.

`O[C@](c1ccccc1)(c1ncc(C[N+]23CCC(CC2)C(COc2cccc(F)c2)C3)o1)C1CCCCC1` (single isomer, unassigned) [Example 81] and `O[C@](c1ccccc1)(c1ncc(C[N+]23CCC(CC2)C(COc2ccc(F)cc2)C3)o1)C1CCCCC1` (single isomer, unassigned) [Example 82] cannot be ordered by Ki: < 5 nM for the first, < 5 nM for the second.

`OC(c1ccccc1)(c1ccccc1)c1ncc(C[N+]23CCC(CC2)C(COc2cccc(F)c2)C3)o1` (single isomer, unassigned) [Example 83, 3-(3-Fluoro-phenoxymethyl)-1-[2-(hydroxy-diphenyl-methyl)-oxazol-5-ylmethyl]-1-azonia-bicyclo[2.2.2]octane; bromide] and `OC(c1ccccc1)(c1ccccc1)c1ncc(C[N+]23CCC(CC2)C(COc2ccc(F)cc2)C3)o1` (single isomer, unassigned) [Example 86, 3-(4-Fluoro-phenoxymethyl)-1-[2-(hydroxy-diphenyl-methyl)-oxazol-5-ylmethyl]-1-azonia-bicyclo[2.2.2]octane; bromide] fall in the same range of Ki: 5 to 20 nM for the first, 5 to 20 nM for the second.

`OC(c1ccccc1)(c1ccccc1)c1ncc(C[N+]23CCC(CC2)C(COc2cccc(F)c2)C3)o1` (single isomer, unassigned) [Example 84, 3-(3-Fluoro-phenoxymethyl)-1-[2-(hydroxy-diphenyl-methyl)-oxazol-5-ylmethyl]-1-azonia-bicyclo[2.2.2]octane; bromide] and `O[C@](c1ccccc1)(c1ncc(C[N+]23CCC(CC2)C(COc2cccc(F)c2)C3)o1)C1CCCCC1` (single isomer, unassigned) [Example 85] cannot be ordered by Ki: < 5 nM for the first, < 5 nM for the second.

`O[C@](c1ccccc1)(c1ncc(C[N+]23CCC(CC2)C(COc2ccc(F)cc2)C3)o1)C1CCCCC1` (single isomer, unassigned) [Example 87] and `OC(c1ccccc1)(c1cc(C[N+]23CCC(CC2)[C@@H](Oc2ccc(F)cc2)C3)on1)C1CCCCC1` (single isomer, unassigned) [Example 143] cannot be ordered by Ki: < 5 nM for the first, < 5 nM for the second.

`C=CCOCC1C[N+]2(Cc3cnc([C@](O)(c4ccccc4)C4CCCCC4)o3)CCC1CC2` (single isomer, unassigned) [Example 89, formate] and `O[C@@](c1ccccc1)(c1ncc(C[N+]23CCC(CC2)CC3)o1)C1CCCCC1` [Example 5, 1-[2-((S))-Cyclohexyl-hydroxy-phenyl-methyl)-oxazol-5-ylmethyl]-1-azonia-bicyclo[2.2.2]octane bromide] cannot be ordered by Ki: < 5 nM for the first, < 5 nM for the second.

First: C=CCOCC1C[N+]2(Cc3cnc([C@](O)(c4ccccc4)C4CCCCC4)o3)CCC1CC2 (single isomer, unassigned) [Example 90, formate]
Second: O[C@@](c1ccccc1)(c1ncc(C[N+]23CCC(CC2)[C@H](Oc2ccccc2)C3)o1)C1CCCCC1 [Example 6, (S)-1-[2-((S)—Cyclohexyl-hydroxy-phenyl-methyl)-oxazol-5-ylmethyl]-3-phenoxy-1-azonia-bicyclo[2.2.2]octane bromide]
The Ki of the first is lower: 5 to 20 nM for the first, > 20 nM for the second. The first binds more tightly here.

`OC(c1ccccc1)(c1cc(C[N+]23CCC(CC2)C(COc2ccccc2)C3)on1)C1CCCCC1` (single isomer, unassigned) [Example 91] and `OC(c1ccccc1)(c1cc(C[N+]23CCC(CC2)C(CSc2ccccc2)C3)on1)C1CCCCC1` (single isomer, unassigned) [Example 123] cannot be ordered by Ki: < 5 nM for the first, < 5 nM for the second.

`OC(c1ccccc1)(c1cc(C[N+]23CCC(CC2)[C@@H](Oc2cccc(F)c2)C3)on1)C1CCCCC1` (single isomer, unassigned) [Example 101] and `OC(c1ccccc1)(c1noc(C[N+]23CCC(CC2)[C@@H](Oc2cccc(F)c2)C3)n1)C1CCCCC1` (single isomer, unassigned) [Example 128] cannot be ordered by Ki: < 5 nM for the first, < 5 nM for the second.

`OC(c1ccccc1)(c1ncc(C[N+]23CCC(CC2)C(CSc2ccccc2)C3)o1)C1CCC1` (single isomer, unassigned) [Example 122] and `OC(c1ccccc1)(c1cc(C[N+]23CCC(CC2)[C@@H](CSc2ccccc2)C3)on1)C1CCCCC1` (single isomer, unassigned) [Example 124] cannot be ordered by Ki: < 5 nM for the first, < 5 nM for the second.

First: OC(c1ccccc1)(c1cc(C[N+]23CCC(CC2)C(CSc2ccc(F)cc2)C3)on1)C1CCCCC1 (single isomer, unassigned) [Example 125]
Second: OC(c1ccccc1)(c1noc(C[N+]23CCC(CC2)C(CSc2cccc(F)c2)C3)n1)C1CCCCC1 (single isomer, unassigned) [Example 133]
The Ki of the first is higher: 5 to 20 nM for the first, < 5 nM for the second. The second binds more tightly here.

`OC(c1ccccc1)(c1cc(C[N+]23CCC(CC2)[C@@H](SCc2ccccc2)C3)on1)C1CCCCC1` (single isomer, unassigned) [Example 126] and `OC(c1ccccc1)(c1noc(C[N+]23CCC(CC2)[C@@H](SCc2ccccc2)C3)n1)C1CCCCC1` (single isomer, unassigned) [Example 127] cannot be ordered by Ki: < 5 nM for the first, < 5 nM for the second.

`Cc1ccc(O[C@H]2C[N+]3(Cc4nc(C(O)(c5ccccc5)C5CCCCC5)no4)CCC2CC3)cc1Cl` (single isomer, unassigned) [Example 129] and `OC(c1ccccc1)(c1noc(C[N+]23CCC(CC2)[C@H](COc2ccccc2)C3)n1)C1CCCCC1` (single isomer, unassigned) [Example 144] cannot be ordered by Ki: < 5 nM for the first, < 5 nM for the second.

`OC(c1ccccc1)(c1noc(C[N+]23CCC(CC2)[C@@H](Sc2ccccc2)C3)n1)C1CCCCC1` (single isomer, unassigned) [Example 131] and `OC(c1ccccc1)(c1noc(C[N+]23CCC(CC2)[C@@H](CSc2ccccc2)C3)n1)C1CCCCC1` (single isomer, unassigned) [Example 132] cannot be ordered by Ki: < 5 nM for the first, < 5 nM for the second.

`O[C@@](c1ccccc1)(c1ncc(C[N+]23CCC(CC2)[C@@H](Oc2ccccc2)C3)o1)C1CCCCC1` [Example 7, (R)-1-[2-((S)—Cyclohexyl-hydroxy-phenyl-methyl)-oxazol-5-ylmethyl]-3-phenoxy-1-azonia-bicyclo[2.2.2]octane bromide] and `O[C@](c1ccccc1)(c1ncc(C[N+]23CCC(CC2)[C@H](Oc2ccccc2)C3)o1)C1CCCCC1` [Example 8, (S)-1-[2-((R)—Cyclohexyl-hydroxy-phenyl-methyl)-oxazol-5-ylmethyl]-3-phenoxy-1-azonia-bicyclo[2.2.2]octane; bromide] fall in the same range of Ki: 5 to 20 nM for the first, 5 to 20 nM for the second.

Going from `O[C@](c1ccccc1)(c1ncc(C[N+]23CCC(CC2)[C@@H](Oc2ccccc2)C3)o1)C1CCCCC1` [Example 9, (R)-[2-((R)—Cyclohexyl-hydroxy-phenyl-methyl)-oxazol-5-ylmethyl]-3-phenoxy-1-azonia-bicyclo[2.2.2]octane; bromide] to `O=C(N[C@H]1C[N+]2(Cc3cnc([C@](O)(c4ccccc4)C4CCCCC4)o3)CCC1CC2)c1ccccc1` [Example 13, (R)-3-benzoylamino-1-[2-((R)-cyclohexyl-hydroxy-phenyl-methyl)-oxazol-5-ylmethyl]-1-azonia-bicyclo[2.2.2]octane; formate], the Ki rises from < 5 nM to > 20 nM. The first binds more tightly here.

`O=C(N[C@@H]1C[N+]2(Cc3cnc([C@](O)(c4ccccc4)C4CCCCC4)o3)CCC1CC2)c1ccccc1` [Example 15, (S)-3-Benzoylamino-1-[2-((R)-cyclohexyl-hydroxy-phenyl-methyl)-oxazol-5-ylmethyl]-1-azonia-bicyclo[2.2.2]octane; formate] and `O=C(N[C@@H]1C[N+]2(Cc3cnc([C@](O)(c4ccccc4)C4CCCCC4)o3)CCC1CC2)c1ccc(Cl)cc1` [Example 19, (S)-3-(4-chloro-benzoylamino)-1-[2-((R)-cyclohexyl-hydroxy-phenyl-methyl)-oxazol-5-ylmethyl]-1-azonia-bicyclo[2.2.2]octane; formate] cannot be ordered by Ki: < 5 nM for the first, < 5 nM for the second.
